Laboratory results from PMC5872333, “Antifungal Potential of Host Defense Peptide Mimetics in a Mouse Model of Disseminated Candidiasis” (Journal of Fungi, 2018).
In brackets after ≈: the same amount, converted by molar mass. Read-outs that look alike come from different tables or passages of the source.

Key:
[1] = system: Candida albicans, strain SC5314; test: MIC/MFC, CLSI broth microdilution, C. albicans; assay type: cell-based
Description: (§1) A standard invasive candidiasis strain of C. albicans SC5314 was used for peptide mimetic compounds screening. Non-albicans Candida species (NAC) C. dubliniensis (NCPF3949), C. glabrata (ATCC 90030), C. krusei (ATCC 6258), C. parapsilosis (ATCC 22019) and C. tropicalis (ATCC 750) (obtained from the laboratory of David Perlin, PHRI/Rutgers), were cultured on YPD (1% yeast extract, 2% peptone, 2% dextrose, pH 5.7) agar at 37°C and were used for all experimental studies. Fluconazole resistant clinical isolates of C. glabrata from five different patients and C. tropicalis from one patient were collected from the clinical microbiology laboratory, Shands Hospital, University of Florida, Gainesville, FL, USA.
(§2) Candida albicans […], NAC species and fluconazole-resistant clinical isolates of invasive candidiasis strains of C. glabrata and C. tropicalis were used for minimum inhibitory concentration (MIC) and minimum fungicidal concentration (MFC) studies of lead compounds. MICs were determined using the Clinical and Laboratory Standards Institute (CLSI) standard broth microdilution method. Suspensions of C. albicans were prepared by measuring optical density at 595 nm (OD595) of 1.0 in phosphate buffered saline (PBS). HDP mimetic compounds were diluted in 50 µL RPMI/MOPS cell culture medium in a 96-well plate (tissue culture treated; Costar, Corning Incorporated, Corning, NY, USA). To each well, a suspension (50 µL) of Candida was added, and then plate was incubated at 37 °C in a humidified chamber for a period of 24 h. To determine the MFC, a sample (100 µL) from the well defined as having the MIC and the wells with other three higher concentrations were plated onto YPD agar. Candida colonies were observed after 24 h. The MFC is defined as the lowest concentration of compound at which no colonies are observed. All MIC and MFC assays were performed in duplicate.

C. tropicalis (ATCC 750) = test: MIC broth microdilution, C. tropicalis; assay type: cell-based; settings: Candida tropicalis, ATCC750; read-out: NAC species MIC, C. tropicalis
Description: as §1, §2

[2] = system: C. parapsilosis (ATCC 22019); test: MIC broth microdilution, C. parapsilosis; assay type: cell-based, Candida parapsilosis; settings: Lodderomyces parapsilosis, ATCC22019; read-out: NAC species MIC, C. parapsilosis
Description: as §1, §2

[3] = system: C. dubliniensis (NCPF3949); test: MIC broth microdilution, C. dublinensis; assay type: cell-based; settings: Candida dubliniensis, read-out: NAC species MIC, C. dublinensis
Description: as §1, §2

C. glabrata (ATCC 90030) = test: MIC broth microdilution, C. glabrata; assay type: cell-based, Candida glabrata; settings: Nakaseomyces glabratus, ATCC90030; read-out: NAC species MIC, C. glabrata
Description: as §1, §2

C. krusei (ATCC 6258) = test: MIC broth microdilution, C. krusei; assay type: cell-based, Candida krusei; settings: Pichia kudriavzevii, ATCC6258; read-out: NAC species MIC, C. krusei
Description: as §1, §2

[4] = Mammalian cell cytotoxicity, MTS viability assay, 3T3; assay type: cell-based; settings: mouse, 3T3 fibroblasts (ATCC CRL-1658), 3T3 cells, 1 h exposure without serum
Description: Cytotoxicity (50% effective concentration (EC50)) was determined against mouse 3T3 fibroblasts (ATCC CRL-1658), OKF6/TERT-1 cells (oral keratinocytes), and human transformed liver HepG2 cells (ATCC HB-8065), using an MTS viability assay (Promega, Fitchburg, WI, USA). Growth medium was replaced with medium without serum, and eight 2-fold dilutions of compound were added. Following incubation for 1 h at 37 °C, compounds were removed, and medium containing serum was returned. Viability was determined using an MTS viability assay (CellTiter 96 aqueous nonradioactive cell proliferation assay, Promega).

whole human blood = test: Hemolysis assay; assay type: cell-based; settings: 0.5 h, 30 min, 37 °C
Description: Peptide mimetic compounds were tested in duplicate using a hemolysis assay previously published. Briefly, two-fold serial dilutions starting at 2 mg/mL in 150 mM NaCl (saline), 20% DMA (Alfa Aesar, Ward Hill, MA, US), or 10% kleptose in saline. 3% saponin (Fluka) in saline was used as a positive control. Each dilution of each compound (25 µL) was plated in a 96-well round bottomed plate and 25 µL of whole human blood (BIORECLAMATION, Westbury, NY, USA) was added to each sample and mixed for 10 second. The blood was Type O, from 2 males and 2 females, collected with potassium EDTA to prevent clotting. Plates were incubated on a shaker for 30 min at 37 °C, then centrifuged at 600× g for 5 min. 5 µL of the supernatant was transferred to a 96-well flat-bottomed plate with 200 µL H2O in each well and mixed for 5 min. Absorbance was read at 405 nm (Spectramax 250, Molecular Devices, San Jose, CA, USA). Percent hemolysis was then calculated as:
P = (OD405 (PMX compound) – OD405 (control))/(OD405 (Saponin) – OD405 (control))
Curves were fitted to report an HC50 (50% hemolysis) value for each compound: […]

[5] = Maximum tolerated dose (MTD) determination; settings: mouse, in vivo, sc
Description: Female CD-1 mice (Charles River Laboratories), 8–10 weeks old, >20 g were used to determine the MTD. Mice were housed individually in stainless steel, wire-bottom cages to minimize access to urine and feces and fed Harlan Teklad Certified Global Diet® with tap water ad libitum. Mice were acclimated to the study room at least 3 days prior to dosing. Mice (3 per group) were dosed with a subcutaneous (SC) bolus injection beginning with 10 mg/kg of the test compound at a concentration of 2 mg/mL. Doses were lowered two-fold for subsequent groups to find the MTD. The dose volume was […], calculated using the weight of the animal on the day of injection. There were 3 dose events, with 2 days between each event. […] Body weights were obtained daily until the day of euthanization with a CO2 overdose. Any mortality during the study was also recorded. MTD data were obtained by Ricerca Biosciences, LLC, Concord, OH, USA. MTD of each HDP mimetic in CD-1 mice was determined and our studies utilized doses beginning with 0.5X MTD.

C. albicans [6] = test: Yeast membrane permeability, propidium iodide incorporation (flow cytometry); assay type: cell-based, Candida albicans
Description: C. albicans was suspended in RPMI/MOPS media to a total concentration of 2 × 10^6 cfu/mL. One ml aliquots of the C. albicans suspension were treated with each mimetic compound at a concentration of 32 µg/mL, using 95% ethanol as positive control. Samples were incubated with the mimetics at 30 °C for 0, 5, 15 and 30 min. After treatment, samples were centrifuged at 5000 rpm for 5 min. Supernatants were removed and pellets were washed twice with 1 mL of PBS. […] Samples were analyzed by flow cytometry (FACSCalibur, Becton Dickinson, Immunocytometry Systems, San Jose, CA, USA) to assess percent uptake of PI.

C. albicans [7] = test: MIC assay in the presence of CaCl2 (divalent cation inhibition); assay type: cell-based; settings: Candida albicans, 2.5 mM CaCl2
Description: as §2, with “The MFC is defined as the lowest concentration of compound at which no colonies are observed. All MIC and MFC assays were performed in duplicate.” left out
To assess the effect of a divalent cations on the electrostatic interaction between mimetics and cell membrane of yeast, we used calcium chloride at concentrations of 2, 5, 7.5 and 10 […]. […] At each concentration of this cation, the MIC of mimetics were determined by the method described above.

C. albicans SC5314 = test: Immunosuppressed mouse model of invasive candidiasis, kidney burden; assay type: in vivo, CD-1 mice; settings: 20 mg/kg by gavage 2 h after infection, 24 h, average of four independent experiments
Description: C. albicans SC5314 were grown in YPD broth (Difco laboratories, Detroit, MI, USA) and stock cultures were stored at −80 °C. The frozen stocks were first grown on YPD plates and kept at 4 °C. Prior to each experiment, a stock inoculum suspension of Candida was prepared in YPD broth and incubated at 30 °C with shaking at 200 rpm for 12 h. The culture was washed twice with sterile 1X phosphate buffered saline (PBS), counted with a hemocytometer, and diluted with PBS to get the desired concentration of 3.5 × 10^5 cfu/mL. 100 µL was injected intravenously (IV) into each mouse via the tail vein. […]
Male CD-1 mice, 6–8 weeks old (20–22 g), were made neutropenic with two intraperitoneal (IP) injections of 150 mg/kg in 10 mL/kg cyclophosphamide four days and one day before inoculation. […] 2 h after C. albicans inoculation, mimetic compounds were injected subcutaneously (SC) at 0.5X of the MTD (determined by […] as described). Fluconazole (20 mg/kg) was administered to another group by oral gavage at 2 h post inoculation, as a positive control for the experiments, to confirm the ability to quantify an effect on kidney burden. […] Serial dilutions of the tissue homogenates were conducted, 0.1 mL aliquots were spread on YPD agar plates, and the plates incubated at 35 °C overnight. cfu/g kidneys were determined from colony counts. […]

[8] = C. albicans SC5314, 50% human serum, read-out: MIC+50% Human serum
[9] = C. albicans SC5314, without human serum
[10] = C. albicans SC5314, without human serum, 24 h, read-out: MIC
[11] = 32 µg/mL HDP mimetic, C. albicans

| Structure (SMILES) | MIC [1, 8] | MFC [1, 9] | MIC [1, 10] | MIC (C. tropicalis (ATCC 750)) | MIC [2] | MIC [3] | MIC (C. glabrata (ATCC 90030)) | MIC (C. krusei (ATCC 6258)) | EC50 at 1 h [4] | EC50 (whole human blood) | MTD [5] | time to maximum incorporation of PI (C. albicans [6]; [11]) | PI entered the cell (C. albicans [6]; positive control, within 7 min) | MIC (C. albicans [7]) | log10 reduction in kidney cfu (C. albicans SC5314) | rate of membrane activity (PI incorporation) (C. albicans [6]; 32 µg/mL HDP mimetic, C. albicans, comparison among compounds) |
| --- | --- | --- | --- | --- | --- | --- | --- | --- | --- | --- | --- | --- | --- | --- | --- | --- |
| N=C(N)N1CCN(c2ccc(-c3cc(-c4ccc(N5CCN(C(=N)N)CC5)cc4)ncn3)cc2)CC1 [Compound 1] | 4 µg/mL (≈ 8.25 µM) | 8 µg/mL (≈ 16.5 µM) | 4 µg/mL (≈ 8.25 µM) | 4 to 8 µg/mL (≈ 8.25 to 16.5 µM) | 4 to 8 µg/mL (≈ 8.25 to 16.5 µM) | 8 µg/mL (≈ 16.5 µM) | 4 µg/mL (≈ 8.25 µM) | 32 µg/mL (≈ 66 µM) | 311 µM | > 1790 µM | 10 mg/kg free base | 30 min |  |  |  |  |
| CCO [95% ethanol, ethanol, reference compound] |  |  |  |  |  |  |  |  |  |  |  |  | 100% |  |  |  |
| N=C(N)NCCCc1cc(CCCNC(=N)N)cc(NC(=O)c2ccc(C(=O)Nc3cc(CCCNC(=N)N)cc(CCCNC(=N)N)c3)cc2)c1 [Compound 2] | 4 µg/mL (≈ 5.61 µM) | 16 µg/mL (≈ 22.4 µM) | 4 µg/mL (≈ 5.61 µM) | 8 µg/mL (≈ 11.2 µM) | 1 µg/mL (≈ 1.4 µM) | 32 µg/mL (≈ 44.9 µM) | 8 µg/mL (≈ 11.2 µM) | 8 µg/mL (≈ 11.2 µM) | 358 µM | > 1160 µM | 10 mg/kg free base | 30 min |  | > 60 µg/mL |  |  |
| OC(Cn1cncn1)(Cn1cncn1)c1ccc(F)cc1F [Fluconazole, fluconazole, reference compound] |  |  | 0.25 µg/mL (≈ 0.816 µM) |  |  |  |  |  |  |  |  |  |  |  | 3 log |  |
| NCCCOc1cc(OCCCN)cc(-c2ccc3c(c2)c2cc(-c4cc(OCCCN)cc(OCCCN)c4)ccc2n3CCCN)c1 [Compound 4] | 4 µg/mL (≈ 5.98 µM) | 8 µg/mL (≈ 12 µM) | 4 µg/mL (≈ 5.98 µM) | 2 to 4 µg/mL (≈ 2.99 to 5.98 µM) | 2 µg/mL (≈ 2.99 µM) | 4 µg/mL (≈ 5.98 µM) | 2 µg/mL (≈ 2.99 µM) | 16 µg/mL (≈ 23.9 µM) | 436 µM | > 1170 µM | 20 mg/kg free base |  |  |  |  | most rapid membrane activity |
